This is an account of results in patent publication US9145419B2, “Imidazopyridazinyl compounds” (Bristol-Myers Squibb Company, priority 2010, dated 2015).

One assay addresses Human CYP17 (Homo sapiens (Human), UniProt P05093). The experiment in a line: CYP17 Total SPA assay. It counts as biochemical. Particulars: microsomes from HEK2 cells stably transfected with CYP17; 3H-Pregnenolone 1 uM, NADPH 2 mM. As to the method: The assays were performed in U-bottom 384-well optiplates. The final assay volume was 15 μl prepared from 7.5 μl additions of microsomes (prepared as a high-speed pellet from homogenized HEK2 cells stably transfected with CYP17), substrates (3H-Pregnenolone and NADPH) and test compounds in assay buffer (50 mM Potassium phosphate pH 7.2, 10% glycerol). The reaction was initiated by the combination of the microsomes and substrates in wells containing compound. The reaction was incubated at room temperature for 45 minutes and terminated by adding 7.5 μl of 0.2N HCl to each well. Following an incubation period of 10 minutes, anti-DHEA-coated SPA beads were added to the terminated reaction. The plate was sealed and incubated overnight with shaking at 4° C. The beads were allowed to settle in the plate for 1 hour and the plate read on a TOPCOUNT® (Perkin-Elmer) plate reader.
Inhibition data were calculated by comparison to no enzyme control reactions for 100% inhibition and vehicle-only reactions for 0% inhibition. The final concentration of reagents in the assays are NADPH, 2 mM; 3H-Pregnenolone, 1 uM; microsomes, 1.25 ug/ml; Anti-DHEA-SPA beads (0.125 mg/well) in 0.5% Triton X-100 and DMSO, 0.05%. Dose response curves were generated to determine the concentration required inhibiting 50% of enzyme activity (IC50). Compounds were dissolved at 10 mM in dimethylsulfoxide (DMSO) and evaluated at eleven concentrations, each in duplicate. IC50 values were derived by non-linear regression analysis.

The subject of the next assay is testosterone levels. The assay can be described thus: 1-Day Cyno PK/PD study. It counts as in vivo. As to conditions: cynomolgus monkeys, single oral dose 3 mg/Kg in 80% PEG-400/water, plasma, over 24 hour period. On the procedure: 1-Day Cyno PK/PD Study Protocol
Animals: All procedures involving animals and their care were conducted in conformity with the guidelines that are in compliance with the Bristol-Myers Squibb Institutional Animal Care and Use Committee. Fully mature male cynomolgus monkeys (>4 yrs of age; 5-6 kg) were from an in-house colony. All the monkeys used had chronically implanted femoral vein access ports. For oral studies, all animals were fasted overnight prior to dosing and were fed 4 hr after dosing. All animals had free access to water and were conscious throughout the study.
Drug: For all oral pharmacokinetic studies in cynomolgus monkeys, the tested compound was formulated in polyethylene glycol (PEG 400): water (80:20, v:v) at concentrations of 1-5 mg/mL. […]
Sampling: Blood samples were collected from the femoral port, at 15, 30, and 45 min, and 1, 2, 4, 6, 8, 12, 24, 30, and 48 hr after oral administration. […] The plasma fraction was immediately separated by centrifugation (14,000 rpm, 10 min, 4° C.), frozen on dry ice, and stored at −20° C. until the samples were analyzed.
Analysis of Tested Compound: Plasma samples were thawed and treated with two volumes of acetonitrile containing internal standard. After centrifugation to remove precipitated proteins, an aliquot of supernatant was analyzed by LC/MS/MS. […]

Human CYP17, sequence (P05093 whole entry): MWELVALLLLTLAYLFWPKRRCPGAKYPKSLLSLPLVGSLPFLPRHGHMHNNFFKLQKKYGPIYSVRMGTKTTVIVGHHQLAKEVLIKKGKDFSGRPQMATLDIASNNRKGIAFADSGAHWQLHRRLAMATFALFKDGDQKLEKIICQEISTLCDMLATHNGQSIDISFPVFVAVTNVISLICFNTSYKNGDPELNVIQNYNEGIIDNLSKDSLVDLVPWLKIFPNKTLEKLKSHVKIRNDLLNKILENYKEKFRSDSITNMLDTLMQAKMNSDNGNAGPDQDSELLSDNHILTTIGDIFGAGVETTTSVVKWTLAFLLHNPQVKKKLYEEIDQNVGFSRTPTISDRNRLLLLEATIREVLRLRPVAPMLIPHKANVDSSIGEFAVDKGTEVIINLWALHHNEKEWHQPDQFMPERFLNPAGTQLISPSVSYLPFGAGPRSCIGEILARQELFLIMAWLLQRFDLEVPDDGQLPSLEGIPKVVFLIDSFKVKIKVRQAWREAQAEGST

One may read the IC50 as the point on the concentration scale where inhibition reaches its midpoint. For `Cc1ccncc1-c1ccnn2c(-c3ccccc3)cnc12` [Example 1, 8-(4-Methylpyridin-3-yl)-3-phenylimidazo[1,2-b]pyridazine], the 50% inhibitory concentration (IC50) at Human CYP17 stood at 41 nM. In the case of `COc1ccccc1-c1cnc2c(-c3cnccc3C)ccnn12` [Example 3, 3-(2-Methoxyphenyl)-8-(4-methylpyridin-3-yl)imidazo[1,2-b]pyridazine], the IC50 on Human CYP17 stood at 16 nM. Consider `Cc1ccncc1-c1ccnn2c(-c3ccc(F)cc3)cnc12` [Example 7, 3-(4-fluorophenyl)-8-(4-methylpyridin-3-yl)imidazo[1,2-b]pyridazine], for which, at Human CYP17, the IC50 was 56 nM. The compound further came in with a testosterone levels with testosterone levels of about 15 ng/dL.

Regarding `Cc1cccc(-c2cnc3c(-c4cnccc4C)ccnn23)c1` [Example 9, 8-(4-methylpyridin-3-yl)-3-m-tolylimidazo[1,2-b]pyridazine], the IC50 on Human CYP17 was found to be 120 nM. The same measure, in the same setting: as for `Cc1ccncc1-c1ccnn2c(-c3cccc(Cl)c3)cnc12` [Example 11, 3-(3-chlorophenyl)-8-(4-methylpyridin-3-yl)imidazo[1,2-b]pyridazine], the figure is 97 nM. Still for that read-out and setting: as for `Fc1ccc(-c2cnc3c(-c4cccnc4)ccnn23)cc1` [Example 26, 3-(4-fluorophenyl)-8-(pyridin-3-yl)imidazo[1,2-b]pyridazine], the figure is 524 nM. Regarding `Cc1ccncc1-c1ccnn2c(-c3cc(Cl)cc(Cl)c3)cnc12` [Example 34, 3-(3,5-dichlorophenyl)-8-(4-methylpyridin-3-yl)imidazo[1,2-b]pyridazine], the IC50 at Human CYP17 amounted to 664 nM. Consider `Cc1ccncc1-c1ccnn2c(-c3cccs3)cnc12` [Example 35, 8-(4-methylpyridin-3-yl)-3-(thiophen-2-yl)imidazo[1,2-b]pyridazine], for which, on Human CYP17, the 50% inhibitory concentration (IC50) worked out at 9 nM. Turning to `Cc1ccncc1-c1ccnn2c(-c3cccc(C(F)(F)F)c3)cnc12` [Example 37, 8-(4-methylpyridin-3-yl)-3-(3-(trifluoromethyl)phenyl)imidazo[1,2-b]pyridazine], the IC50 on Human CYP17 is 129 nM. The same measure, in the same setting: the figure for `Cc1cc(C)cc(-c2cnc3c(-c4cnccc4C)ccnn23)c1` [Example 38, 3-(3,5-dimethylphenyl)-8-(4-methylpyridin-3-yl)imidazo[1,2-b]pyridazine] is 279 nM.
